Test results taken from patent US5116855A, “Rhodanine derivatives and pharmaceutical compositions” (Nisshin Flour Milling Co., Ltd., priority 1989, dated 1992).

Biological target: T1, aldose reductase (Rattus norvegicus, UniProt P07943)
T1 construct: the lenses were excised and homogenized in cold distilled water; from tissue; host or cells: lens of male SD rats, homogenate supernatant (crude enzyme)
Assay: Inhibitory activity against aldose reductase (crude enzyme from rat lenses, NADPH oxidation at 340 nm, D,L-glyceraldehyde substrate)
Assay type: biochemical
Conditions: aldose reductase from SD rat lenses, pH 6.2, 30° C.; for inhibition at 10 µM: pH 6.2, 10^-5 M; for inhibition at 10 µM / inhibition at 1 µM: read-out: Percentage of inhibition (%); for inhibition at 1 µM: pH 6.2, 10^-6 M
Description: The compounds of the present invention were evaluated for the inhibitory activity against aldose reductase according to the following assay procedure.
Enzyme activity was assayed according to the modification [Biochemical Pharmacology, 25, 2505 (1976)] of the method described in J. Biol. Chem., 240, 877-882 (1965).
SD strain male rats were sacrificed by decapitation, the lenses were excised and homogenized in cold distilled water. The homogenate was then centrifuged and the supernatant was used as the crude aldose reductase solution.
Separately, a 0.1 M sodium phosphate buffer (pH 6.2) containing 0.4 M ammonium sulfate was prepared at 30° C. In this buffer were dissolved the present compound, the crude aldose reductase solution and nicotinamide-adenine dinucleotide phosphate, reduced form (NADPH). The mixture was preincubated at 30° C. for 3 minutes and the reaction was initiated by addition of D,L-glyceraldehyde. In this case, the concentration of the present compound dissolved was 10^-5 M and 10^-6 M, respectively. The total amount of the assay mixture was 1.0 ml, containing 0.16 mM of NADPH, 10 mM of D,L-glyceraldehyde and 0.010-0.016 units of aldose reductase.
The inhibitory activity of the present compounds against aldose reductase was measured using each 1.0 ml of the reaction mixture containing the present compound in the above concentration. In this measurement, the rate of NADPH oxidation was followed by recording the decrease in absorbance at 340 nm. The inhibitory activity of the present compounds against aldose reductase as measured was expressed in percentage of inhibition (%) as a relative activity based on a control value.

Row | Compound | inhibition at 10 µM | inhibition at 1 µM | Percentage of inhibition (%) (10^-5 M) | Percentage of inhibition (%) (10^-6 M)
1 | O=C(O)CCC(C=Cc1ccc(C(F)(F)F)cc1)=C1SC(=S)NC1=O (single isomer, unassigned) [Example 23, 6-(4-Trifluoromethylphenyl)-4-(4-oxo-2-thioxo-5-thiazolidinylidene)-5-hexenoic acid] | 64.6% | – | – | –
2 | CCCC(=Cc1ccccc1OCC(=O)OC)C=C1SC(=S)NC1=O (single isomer, unassigned) [61 Isomer A] | 61.8% | 28.7% | – | –
3 | CC(C(=O)Nc1ccccc1C(=O)O)=C1SC(=S)NC1=O [Example 36, N-[2-(4-Oxo-2-thioxo-5-thiazolidinylidene)propionyl]anthranilic acid] | 94% | 80% | – | –
4 | O=C(O)CCC(C=Cc1ccco1)=C1SC(=S)NC1=O [Example 35, 6-(2-Furyl)-4-(4-oxo-2-thioxo-5-thiazolidinylidene)-5-hexenoic acid] | 72.3% | – | – | –
5 | CCOC(=O)CCC(C=Cc1ccc(C(F)(F)F)cc1)=C1SC(=S)NC1=O (single isomer, unassigned) [6 Isomer A] | 35% | – | – | –
6 | CCCCCCC(C=Cc1ccc(C(=O)O)cc1)=C1SC(=S)NC1=O (single isomer, unassigned) [26 Isomer A] | – | 68.9% | 92.0% | –
7 | Cc1ccsc1C=CC(CCC(=O)O)=C1SC(=S)NC1=O [Example 31, 6-(3-Methyl-2-thienyl)-4-(4-oxo-2-thioxo-5-thiazolidinylidene)-5-hexenoic acid] | 83.6% | 39.8% | – | –
8 | COC(=O)c1ccccc1NC(=O)CCCC(C)=C1SC(=S)NC1=O [Example 19, Methyl N-[5-(4-oxo-2-thioxo-5-thiazolidinylidene)hexanoyl]anthranilate] | 34.6% | – | – | –
9 | O=C1NC(=S)SC1=Cc1ccc(OCCCCc2nnn[nH]2)cc1 [Example 20, 5-{4-[4-(1H-Tetrazol-5-yl)butyloxy]benzylidene}-4-oxo-2-thioxothiazolidine] | 84% | 43.9% | – | –
10 | CCOC(=O)CCC(C=Cc1cccs1)=C1SC(=S)NC1=O (single isomer, unassigned) [13 Isomer A] | 56% | – | – | –
11 | O=C(O)CCC(C=Cc1cccc(O)c1)=C1SC(=S)NC1=O (single isomer, unassigned) [Example 25, 6-(3-Hydroxyphenyl)-4-(4-oxo-2-thioxo-5-thiazolidinylidene)-5-hexenoic acid] | 82% | 32.9% | – | –
12 | COc1ccc(C=CC(CCCC(=O)O)=C2SC(=S)NC2=O)cc1OC (single isomer, unassigned) [38 Isomer B] | – | – | 94.5% | 77.9%
13 | COc1ccc(C=CC(CCCC(=O)O)=C2SC(=S)NC2=O)cc1OC (single isomer, unassigned) [38 Isomer A] | 95.7% | 86.8% | – | –
14 | COC(=O)COc1ccc(C=CC(C)=C2SC(=S)NC2=O)cc1OCC(=O)OC (single isomer, unassigned) [60 Isomer A] | 61.5% | 27.7% | – | –
15 | CC(C=Cc1ccc(OCC(=O)O)cc1)=C1SC(=S)NC1=O (single isomer, unassigned) [21 Isomer B] | – | – | 89.8% | –
16 | CCCCCCC(C=Cc1ccc(C=CC(=O)O)cc1)=C1SC(=S)NC1=O (single isomer, unassigned) [Example 28, 4-[3-(4-Oxo-2-thioxo-5-thiazolidinylidene)-1-nonenyl]cinnamic acid] | 33% | – | – | –
17 | CCCCCCC(CCc1ccc(CCC(=O)O)cc1)=C1SC(=S)NC1=O (single isomer, unassigned) [33 Isomer B] | – | – | 30.5% | –
18 | CCOC(=O)COc1ccccc1C=CC(C)=C1SC(=S)NC1=O [Example 39, Ethyl 2-[3-(4-oxo-2-thioxo-5-thiazolinylidene)-1-butenyl]phenoxacetate] | 62.6% | 50.9% | – | –
19 | O=C(O)CCC(C=Cc1ccccc1F)=C1SC(=S)NC1=O (single isomer, unassigned) [Example 22, 6-(2-Fluorophenyl)-4-(4-oxo-2-thioxo-5-thiazolidinylidene)-5-hexenoic acid] | 88.1% | 41.9% | – | –
20 | Ethyl 4-[3-(4-oxo-2-thioxo-5-thiazolidinylidene)-1-butenyl]-methoxyphenoxyacetate [Example 15] | – | – | 66.7% | 35.3%
21 | CCOC(=O)COc1ccc(C=CC(C)=C2SC(=S)N(C)C2=O)cc1OC (single isomer, unassigned) [55 Isomer B] | – | – | 47.5% | 24.3%
22 | CCCC(C=Cc1ccc(C(=O)O)cc1)=C1SC(=S)NC1=O (single isomer, unassigned) [3 Isomer B] | – | – | 80.5% | 34.5%
23 | COC(=O)COc1ccc(C(C)C)cc1C=CC(C)=C1SC(=S)NC1=O (single isomer, unassigned) [62 Isomer B] | – | – | 66.7% | –
24 | CCOC(=O)CCC(C=Cc1ccc(OC)c(OC)c1)=C1SC(=S)NC1=O [Example 2, Ethyl 6-(3,4-dimethoxyphenyl)-4-(4-oxo-2-thioxo-5-thiazolidinylidene)-5-hexenoate] | 72% | 48.6% | – | –

Next, values leading:

Row | inhibition at 10 µM | inhibition at 1 µM | Percentage of inhibition (%) (10^-5 M) | Percentage of inhibition (%) (10^-6 M) | Compound
25 | – | – | 80.5% | 32.2% | COC(=O)COc1ccccc1C=C(C)C=C1SC(=S)NC1=O [Example 63, Methyl 2-[2-methyl-3-(4-oxo-2-thioxo-5-thiazolinylidene)-1-propenyl]phenoxyacetate]
26 | 34.3% | – | – | – | COC(=O)COc1c(C=CC(C)=C2SC(=S)NC2=O)cccc1OC [Example 46, Methyl 2-methoxy-6-(3-(4-oxo-2-thioxo-5-thiazolinylidene)-1-butenyl]phenoxyacetate]
27 | 48.9% | – | – | – | CCOc1cc(CCC(C)=C2SC(=S)NC2=O)ccc1OCC(=O)OC [Example 45, Methyl 2-ethoxy-4-[3-(4-oxo-2-thioxo-5-thiazolinylidene)butyl]phenoxyacetate]
28 | 93.7% | 82.4% | – | – | CC(=Cc1ccccc1OCC(=O)O)C=C1SC(=S)NC1=O [Example 68, 2-[2-Methyl-3-(4-oxo-2-thioxo-5-thiazolinylidene)-1-propenyl]phenoxyacetic acid]
29 | 86.6% | 43% | – | – | CC(C=Cc1cc(Cl)cc(Cl)c1OCC(=O)O)=C1SC(=S)NC1=O [Example 80, 2,4-Dichloro-6-[3-(4-oxo-2-thioxo-5-thiazolinylidene)-1-butenyl]phenoxyacetic acid]
30 | 92% | 77.6% | – | – | CC(C=Cc1cc(C(C)C)ccc1OCC(=O)O)=C1SC(=S)NC1=O [Example 85, 4-Isopropyl-2-[3-(4-oxo-2-thioxo-5-thiazolinylidene)-1-butenyl]phenoxyacetic acid]
31 | 59.2% | – | – | – | COc1cccc(CCC(C)=C2SC(=S)NC2=O)c1OCC(=O)O [Example 73, 2-Methoxy-6-(3-(4-oxo-2-thioxo-5-thiazolinylidene)butyl]phenoxyacetic acid]
32 | 82.8% | 41.4% | – | – | CC(C=Cc1cc(C(C)C)c(OCC(=O)O)c(C(C)C)c1)=C1SC(=S)NC1=O [Example 77, 2,6-Diisopropyl-4-[3-(4-oxo-2-thioxo-5-thiazolinylidene)-1-butenyl]phenoxyacetic acid]
33 | 48.9% | 26.1% | – | – | CCOC(=O)COc1ccc(CCC(C)=C2SC(=S)NC2=O)cc1OC [Example 43, Ethyl 2-methoxy-4-[3-(4-oxo-2-thioxo-5-thiazolinylidene)butyl]phenoxyacetate]
34 | 95.8% | 86.1% | – | – | CC(C=Cc1cc(Br)ccc1OCC(=O)O)=C1SC(=S)NC1=O [Example 79, 4-Bromo-2-[3-(4-oxo-2-thioxo-5-thiazolinylidene)-1-butenyl]phenoxyacetic acid]
35 | 87.1% | 65.9% | – | – | COc1cc(C=CC(C)=C2SC(=S)N(C)C2=O)ccc1OCC(=O)O [Example 78, 2-Methoxy-4-[3-(3-methyl-4-oxo-2-thioxo-5-thiazolinylidene)-1-butenyl]phenoxyacetic acid]
36 | 79.9% | 45.6% | – | – | COC(=O)COc1ccc(C(F)(F)F)cc1C=CC(C)=C1SC(=S)NC1=O [Example 66, Methyl 4-trifluoromethyl-2-[3-(4-oxo-2-thioxo-5-thiazolinylidene)-1-butenyl]phenoxyacetate]
37 | 86.2% | 48.5% | – | – | COC(=O)COc1ccccc1C=C(C)C=C1SC(=S)NC1=O [Example 41, Methyl 2-[2-methyl-3-(4-oxo-2-thioxo-5-thiazolinylidene)-1-propenyl]phenoxyacetate]
38 | 67.6% | 22.1% | – | – | COc1ccc(C=CC(C)=C2SC(=S)NC2=O)cc1OCC(=O)O [Example 82, 2-Methoxy-5-[3-(4-oxo-2-thioxo-5-thiazolinylidene)-1-butenyl]phenoxyacetic acid]
